The text below walks through data of patent publication EP4725946A1, “IRAK4 DEGRADATION AGENT AND USE THEREOF” (Guangzhou Unirise Pharmaceutical Co., Ltd., priority 2023, dated 2024).

The test has as its target T1, IRAK4 protein (Homo sapiens, UniProt Q9NWZ3).
T1 sequence (Q9NWZ3 1-460): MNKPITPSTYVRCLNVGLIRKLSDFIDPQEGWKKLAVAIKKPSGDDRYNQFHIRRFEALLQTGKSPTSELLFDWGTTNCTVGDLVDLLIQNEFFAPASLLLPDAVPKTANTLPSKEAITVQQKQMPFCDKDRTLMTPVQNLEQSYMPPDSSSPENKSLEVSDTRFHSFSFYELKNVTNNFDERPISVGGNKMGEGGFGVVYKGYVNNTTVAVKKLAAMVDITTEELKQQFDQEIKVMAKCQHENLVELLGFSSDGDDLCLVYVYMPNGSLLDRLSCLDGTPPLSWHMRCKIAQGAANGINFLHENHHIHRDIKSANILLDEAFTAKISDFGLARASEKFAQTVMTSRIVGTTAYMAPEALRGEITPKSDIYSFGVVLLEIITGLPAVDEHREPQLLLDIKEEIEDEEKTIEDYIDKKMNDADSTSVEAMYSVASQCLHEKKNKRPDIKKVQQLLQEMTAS
The test can be described thus: IRAK4 Degradation Assay in THP-1 Cells (Western Blot). It counts as cell-based. On the set-up: endogenous in cells; host or cells: THP-1 cells. The following applies: 24 hours, 0.0128 to 1000 nM, IRAK4 protein level by Western Blot; for Dmax: read-out: Dmax%. The method, then:
In a 6-well cell culture plate, an appropriate number of THP-1 cells were seeded. The plate was placed in a 5% CO2 incubator at 37°C for overnight culture. Then, the test compound's dimethyl sulfoxide solution was added, with the final concentration ranging from 0.0128 to 1000 nM. After continuous culture for 24 hours, the culture medium was removed, and the cells were collected in a 1.5 mL centrifuge tube. After adding lysis buffer and grinding thoroughly, the mixture was placed on ice for 30 minutes. It was then centrifuged at 15,000 xg and 4°C for 20 minutes. The supernatant was taken, and the level of IRAK4 protein was detected by Western Blot.

What is called Dmax is the greatest extent of degradation seen. The term DC50 denotes the concentration at which degradation of the target reaches its halfway point.

Where two headings read alike, the source gives them in different places.

Regarding `Cn1c(=O)n(C2CCC(=O)NC2=O)c2cccc(C#CCO[C@H]3CC[C@H](C(=O)N4CCC5(CC4)Cc4cc(NC(=O)c6cnn7cccnc67)c(N6CCC(CO)CC6)cc4O5)CC3)c21` (relative stereo) [Compound 74], the greatest degradation seen (Dmax) (THP-1, THP-1 cells) turned out to be 86.2%. For the same compound, the DC50 (THP-1 cells, read-out: DC50) was 2.78 nM.

`O=C1CCC(N2Cc3cc(N4CCC(CN5CCC6(CC5)Cc5cc(NC(=O)c7cnn8cccnc78)c(N7CCC(CO)CC7)cc5O6)CC4)ccc3C2=O)C(=O)N1` (single isomer, unassigned) [Example 84]: the maximal degradation (Dmax) (THP-1, THP-1 cells) is 88.3%. Also, the DC50 (THP-1 cells, read-out: DC50) amounted to 1.13 nM.

Compound `O=C1CCC(N2Cc3cc(N4CCC(CN5CCC6(CC5)Cc5cc(NC(=O)c7cnn8cccnc78)c(N7CCC(CO)CC7)cc5O6)CC4)ccc3C2=O)C(=O)N1` (single isomer, unassigned) [Example 85] had a Dmax% (THP-1 cells) of 89.8%. Further, for the setting “THP-1 cells, read-out: DC50”, the 50% degradation concentration (DC50) was 0.66 nM.

As to `Cn1c(=O)n(C2CCC(=O)NC2=O)c2cccc(CN3CCC(CCN4CCC5(CC4)Cc4cc(NC(=O)c6cnn7cccnc67)c(N6CCC(CO)CC6)cc4O5)CC3)c21` (stereo not drawn) [Compound 1], the maximal degradation (Dmax) (THP-1, THP-1 cells) was determined as 91.9%. Also, the DC50 (THP-1 cells, read-out: DC50) was 1.09 nM.

With `Cn1c(=O)n(C2CCC(=O)NC2=O)c2cccc(CN3CCC(CCN4CCC5(CC4)Cc4cc(NC(=O)c6coc7cccnc67)c(N6CCC(CO)CC6)cc4O5)CC3)c21` (stereo not drawn) [Compound 3], the half-maximal degradation concentration (DC50) (THP-1 cells, read-out: DC50) was 4.14 nM. Moreover, under “THP-1 cells”, the Dmax was found to be 93.5%.

On to `Cn1c(=O)n(C2CCC(=O)NC2=O)c2cccc(CN3CCC(CCN4CCC5(CC4)Cc4cc(NC(=O)c6cnn7cccnc67)c(N6CCN(CC(F)F)CC6)cc4O5)CC3)c21` (stereo not drawn) [Compound 6], for which the DC50 (THP-1 cells, read-out: DC50) is 9.65 nM. For the same compound, the Dmax (THP-1 cells) amounted to 85.1%.

With `Cn1c(=O)n(C2CCC(=O)NC2=O)c2cccc(CN3CCC(CCN4CCC5(CC4)Oc4cc(NC(=O)c6coc7cccnc67)c(N6CCC(CO)CC6)cc4O5)CC3)c21` (stereo not drawn) [Compound 14], the DC50 (THP-1 cells, read-out: DC50) is 3.4 nM. Also, under “THP-1 cells”, the Dmax amounted to 89.2%.

As to `Cn1c(=O)n(C2CCC(=O)NC2=O)c2cccc(C#CCOC3CCN(CCN4CCC5(CC4)Cc4cc(NC(=O)c6cnn7cccnc67)c(N6CCC(CO)CC6)cc4O5)CC3)c21` (stereo not drawn) [Compound 19], the Dmax (THP-1, THP-1 cells) was determined as 87.9%. For the same compound, the DC50 (THP-1 cells, read-out: DC50) came to 2.18 nM.

In the case of `Cn1c(=O)n(C2CCC(=O)NC2=O)c2cccc(C#CCOC3CCN(CCN4CCC5(CC4)Cc4cc(NC(=O)c6coc7cccnc67)c(N6CCC(CO)CC6)cc4O5)CC3)c21` (stereo not drawn) [Compound 21], for the setting “THP-1 cells, read-out: DC50”, the DC50 was 3.58 nM. Further, the Dmax (THP-1 cells) is 91.6%.

For `Cn1c(=O)n(C2CCC(=O)NC2=O)c2cccc(C#CCOC3CCN(CCN4CCC5(Cc6cc(NC(=O)c7coc8cccnc78)c(N7CCC(CO)CC7)cc6O5)C4)CC3)c21` (stereo not drawn) [Compound 23], under “THP-1 cells, read-out: DC50”, the DC50 amounted to 3.08 nM. Where the note is “THP-1 cells”, the maximal degradation (Dmax) turned out to be 88.3%.

Consider `Cn1c(=O)n(C2CCC(=O)NC2=O)c2cccc(C#CCOC3CCN(CCN4CCC5(CC4)Oc4cc(NC(=O)c6cnn7cccnc67)c(N6CCC(CO)CC6)cc4O5)CC3)c21` (stereo not drawn) [Compound 28], for which the DC50 (THP-1 cells, read-out: DC50) was 3.38 nM. Moreover, where the note is “THP-1 cells”, the Dmax is 86.5%.

`Cn1c(=O)n(C2CCC(=O)NC2=O)c2cccc(C#CCOC3CCN(CCN4CCC5(CC4)Oc4cc(NC(=O)c6coc7cccnc67)c(N6CCC(CO)CC6)cc4O5)CC3)c21` (stereo not drawn) [Compound 29]: the DC50 (THP-1 cells, read-out: DC50) is 7.12 nM. The maximal degradation (Dmax) (THP-1 cells) is 92.8%.

For `Cn1c(=O)n(C2CCC(=O)NC2=O)c2cccc(CN3CCC4(CC3)CN(CCN3CCC5(CC3)Cc3cc(NC(=O)c6cnn7cccnc67)c(N6CCC(CO)CC6)cc3O5)C4)c21` (stereo not drawn) [Compound 32], where the note is “THP-1 cells”, half-maximal degradation (DC50) was put at 1.53 nM and the Dmax worked out at 95.4%.

Turning to `Cn1c(=O)n(C2CCC(=O)NC2=O)c2cccc(CN3CC4(CCN(CCN5CCC6(CC5)Cc5cc(NC(=O)c7cnn8cccnc78)c(N7CCC(CO)CC7)cc5O6)CC4)C3)c21` (stereo not drawn) [Compound 33], under “THP-1 cells”, the DC50 came out at 1.66 nM and the Dmax came to 94.8%.

With `COCC1CCN(c2cc3c(cc2NC(=O)c2cnn4cccnc24)CC2(CCN(C[C@H]4CC[C@H](OCC#Cc5cccc6c5n(C)c(=O)n6C5CCC(=O)NC5=O)CC4)CC2)O3)CC1` (stereo partly drawn) [Compound 44], under “THP-1 cells, read-out: DC50”, the DC50 was determined as 6.38 nM. The Dmax (THP-1 cells) amounted to 84.9%.

As for `Cn1c(=O)n(C2CCC(=O)NC2=O)c2cccc(C#CCO[C@H]3CC[C@H](CN4CCC5(Cc6cc(NC(=O)c7cnn8cccnc78)c(N7CCC(CO)CC7)cc6O5)C4)CC3)c21` (stereo partly drawn) [Compound 51], the DC50 (THP-1 cells, read-out: DC50) was 2 nM. Further, the maximal degradation (Dmax) (THP-1 cells) was 83.9%.

Take `Cn1c(=O)n(C2CCC(=O)NC2=O)c2cccc(C#CCO[C@H]3CC[C@H](CN4CCC5(CC4)Cc4cc(NC(=O)c6coc7cccnc67)c(N6CCC(CO)CC6)cc4C5)CC3)c21` (stereo partly drawn) [Compound 52]: where the note is “THP-1 cells, read-out: DC50”, the DC50 was 5.25 nM. Also, the Dmax (THP-1 cells) turned out to be 89.2%.

For the compound `Cn1c(=O)n(C2CCC(=O)NC2=O)c2cccc(C#CCO[C@H]3CC[C@H](CN4CCC5(CC4)Cc4cc(NC(=O)c6cnn7cccnc67)c(N6CCC(CO)CC6)cc4C5)CC3)c21` (stereo partly drawn) [Compound 53], for the setting “THP-1 cells, read-out: DC50”, the DC50 turned out to be 2.77 nM. Further, the Dmax (THP-1 cells) is 77.5%.

As to `Cn1c(=O)n(C2CCC(=O)NC2=O)c2cccc(C#CCO[C@H]3CC[C@H](CN4CCC5(Cc6cc(NC(=O)c7coc8cccnc78)c(N7CCC(CO)CC7)cc6O5)C4)CC3)c21` (stereo partly drawn) [Compound 54], the DC50 (THP-1 cells, read-out: DC50) is 3.5 nM. Also, under “THP-1 cells”, the Dmax worked out at 91.1%.

In the case of `Cn1c(=O)n(C2CCC(=O)NC2=O)c2cccc(C#CCO[C@H]3CC[C@@H](CN4CCC5(CC4)Cc4cc(NC(=O)c6coc7cccnc67)c(N6CCC(CO)CC6)cc4O5)CC3)c21` (stereo partly drawn) [Compound 56], the DC50 (THP-1 cells, read-out: DC50) is 7.79 nM. In addition, the Dmax (THP-1 cells) was 90.4%.

In the case of `Cn1c(=O)n(C2CCC(=O)NC2=O)c2cccc(C#CCO[C@H]3CC[C@@H](CN4CCC5(Cc6cc(NC(=O)c7cnn8cccnc78)c(N7CCC(CO)CC7)cc6O5)C4)CC3)c21` (stereo partly drawn) [Compound 58], under “THP-1 cells, read-out: DC50”, the DC50 is 3.69 nM. Besides, the greatest degradation seen (Dmax) (THP-1 cells) is 85.6%.

`Cn1c(=O)n(C2CCC(=O)NC2=O)c2cccc(C#CCOCCNCCN3CCC4(CC3)Cc3cc(NC(=O)c5cnn6cccnc56)c(N5CCC(CO)CC5)cc3O4)c21` (stereo not drawn) [Compound 59]: the Dmax (THP-1, THP-1 cells) worked out at 88.6%. Moreover, the DC50 (THP-1 cells, read-out: DC50) stood at 1.17 nM.

With `Cn1nc(N2CCC(=O)NC2=O)c2cccc(CN3CCC(CCN4CCC5(CC4)Cc4cc(NC(=O)c6coc7cccnc67)c(N6CCC(CO)CC6)cc4O5)CC3)c21` [Compound 62], under “THP-1, THP-1 cells”, the Dmax was 82.8%. Where the note is “THP-1 cells, read-out: DC50”, the DC50 was 7.34 nM.

As for `O=C1CCC(N2Cc3c(CN4CCC(CCN5CCC6(CC5)Cc5cc(NC(=O)c7cnn8cccnc78)c(N7CCC(CO)CC7)cc5O6)CC4)cccc3C2=O)C(=O)N1` (stereo not drawn) [Compound 64], the Dmax (THP-1, THP-1 cells) was 89.3%. Besides, the DC50 (THP-1 cells, read-out: DC50) amounted to 1.3 nM.

With `O=C1CCC(N2C(=O)c3cc(F)c(N4CCC(CCN5CCC6(CC5)Cc5cc(NC(=O)c7cnn8cccnc78)c(N7CCC(CO)CC7)cc5O6)CC4)cc3C2=O)C(=O)N1` (stereo not drawn) [Compound 72], the Dmax (THP-1, THP-1 cells) is 92.6%. Moreover, where the note is “THP-1 cells, read-out: DC50”, the DC50 was 7.7 nM.

For `COC1(CN2CCC3(CC2)Cc2cc(NC(=O)c4cnn5cccnc45)c(N4CCC(CO)CC4)cc2O3)CCN(c2cccc3c2n(C)c(=O)n3C2CCC(=O)NC2=O)CC1` (stereo not drawn) [Example 79], the Dmax (THP-1, THP-1 cells) is 89.5%. Also, for the setting “THP-1 cells, read-out: DC50”, the DC50 is 1.55 nM.

Regarding `Cn1c(=O)n(C2CCC(=O)NC2=O)c2cccc(C3CC(CN4CCC5(CC4)Cc4cc(NC(=O)c6cnn7cccnc67)c(N6CCC(CO)CC6)cc4O5)C3)c21` (stereo not drawn) [Example 80], the Dmax (THP-1, THP-1 cells) was determined as 83.4%. Under “THP-1 cells, read-out: DC50”, the DC50 came out at 0.64 nM.
